According to ChEMBL document CHEMBL5512664, “Emerging and Re-emerging Warheads for Targeted Covalent Inhibitors: An Update” (J Med Chem, 2024):

How the values were obtained:
[1] = GSH reactivity in PBS buffer at pH 7.4 assessed as half life; type: ADME
[2] = target: T1, Tyrosine-protein kinase ABL1 (Homo sapiens, UniProt P00519); experiment: Inhibition of recombinant ABL kinase (unknown origin) assessed as inactivation rate constant (Kinact)
[3] = target: T1, Tyrosine-protein kinase ABL1; experiment: Inhibition of recombinant ABL kinase (unknown origin) assessed as inhibition constant
Homo sapiens [4] = organism: Homo sapiens; experiment: Binding affinity to wild type Hsp90 (unknown origin) assessed as rate of modification half life
Homo sapiens [5] = organism: Homo sapiens; experiment: Inhibition of wild type Hsp90 (unknown origin) assessed as inactivation rate constant (Kinact)
[6] = target: Bromodomain-containing protein 4 (Homo sapiens) (UniProt O60885); experiment: Binding affinity to his-tagged recombinant BRD4 BD1 (unknown origin) assessed as increase in thermal stability by measuring change in melting temperature after 4 hrs by cellular thermal shift assay
[7] = Reactivity of SuTEx assessed as aryl-LG modifications by measuring half life by HLPC analysis; type: physicochemical
[8] = target: E3 ubiquitin-protein ligase Mdm2 (Homo sapiens) (UniProt Q00987); experiment: Binding affinity to human HDM2 assessed as rate constant of covalent modification (Kinact)
[9] = target: E3 ubiquitin-protein ligase Mdm2 (Homo sapiens) (UniProt Q00987); experiment: Binding affinity to human HDM2 assessed as second-order rate constant (Kinact/Kd) ratio
[10] = GSH reactivity in PBS buffer at pH 8 assessed as second-order reaction rate constants upto 200 uM by DTNB assay; type: ADME; details: pH 8, 200 µM
[11] = target: NAD-dependent protein deacylase sirtuin-5, mitochondrial (Homo sapiens) (UniProt Q9NXA8); experiment: Inhibition of SIRT5 (unknown origin) assessed as inactivation rate constant (Kinact)
[12] = target: NAD-dependent protein deacylase sirtuin-5, mitochondrial (Homo sapiens) (UniProt Q9NXA8); experiment: Inhibition of SIRT5 (unknown origin) assessed as reaction rate Kinact/Ki ratio
[13] = Chemical stability of the compound in pH 7.4 buffer assessed as half life; type: physicochemical
Carbonic anhydrase 2 [14] = target: T2, Carbonic anhydrase 2 (Homo sapiens, UniProt P00918); experiment: Binding affinity to carbonic anhydrase II (unknown origin) fragment assessed as rate of protein modification by measuring inactivation rate constant (Kinact)
Carbonic anhydrase 2 [15] = target: T2, Carbonic anhydrase 2; experiment: Rate of protein modification at carbonic anhydrase II (unknown origin) fragment assessed as inhibition constant
[16] = target: T1, Tyrosine-protein kinase ABL1; experiment: Inhibition of wild type N-terminal His tagged ABL kinase (unknown origin) using fluorescence-labelled substrate by off-chip mobility shift assay
[17] = Cysteine-reactive in peptide assessed as half life using fluorogenic monochlorobimane/zinc complex by measuring fluorescence intensity; type: ADME; details: cysteine-containing peptide
[18] = target: Replicase polyprotein 1ab (Severe acute respiratory syndrome coronavirus 2, UniProt P0DTD1); experiment: Binding affinity to SARS-CoV-2 cysteine protease-Mpro assessed as inhibition constant
[19] = target: Replicase polyprotein 1ab (Severe acute respiratory syndrome coronavirus 2) (UniProt P0DTD1); experiment: Binding affinity to SARS-CoV-2 cysteine protease-Mpro assessed as inactivation rate constant (Kinact)
[20] = GSH reactivity in PBS buffer at pH 8 at 14 degC assessed as half life upto 200 uM; type: ADME
[21] = target: T3, Chromobox protein homolog 8 (Homo sapiens) (UniProt Q9HC52); experiment: Binding affinity to CBX8 (unknown origin) assessed as rate constant of covalent modification (Kinact)
T3 sequence (whole entry): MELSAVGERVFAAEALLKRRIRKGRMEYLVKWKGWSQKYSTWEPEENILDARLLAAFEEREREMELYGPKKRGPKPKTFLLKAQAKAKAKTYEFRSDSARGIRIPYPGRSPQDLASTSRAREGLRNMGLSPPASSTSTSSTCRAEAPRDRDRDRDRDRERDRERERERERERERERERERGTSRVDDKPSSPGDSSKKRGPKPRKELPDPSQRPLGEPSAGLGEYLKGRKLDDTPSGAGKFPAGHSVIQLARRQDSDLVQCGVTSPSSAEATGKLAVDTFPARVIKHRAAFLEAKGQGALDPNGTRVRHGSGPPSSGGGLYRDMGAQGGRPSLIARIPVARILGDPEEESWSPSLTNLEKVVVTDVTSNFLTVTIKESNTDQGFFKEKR

[22] = Reactivity of SuTEx assessed as aryl-AG modifications by measuring half life by HLPC analysis; type: physicochemical
[23] = target: Tyrosine-protein kinase BTK (Homo sapiens, UniProt Q06187); details: A-431, dose 1.0 µM
Chain of Tyrosine-protein kinase BTK (Q06187 whole entry): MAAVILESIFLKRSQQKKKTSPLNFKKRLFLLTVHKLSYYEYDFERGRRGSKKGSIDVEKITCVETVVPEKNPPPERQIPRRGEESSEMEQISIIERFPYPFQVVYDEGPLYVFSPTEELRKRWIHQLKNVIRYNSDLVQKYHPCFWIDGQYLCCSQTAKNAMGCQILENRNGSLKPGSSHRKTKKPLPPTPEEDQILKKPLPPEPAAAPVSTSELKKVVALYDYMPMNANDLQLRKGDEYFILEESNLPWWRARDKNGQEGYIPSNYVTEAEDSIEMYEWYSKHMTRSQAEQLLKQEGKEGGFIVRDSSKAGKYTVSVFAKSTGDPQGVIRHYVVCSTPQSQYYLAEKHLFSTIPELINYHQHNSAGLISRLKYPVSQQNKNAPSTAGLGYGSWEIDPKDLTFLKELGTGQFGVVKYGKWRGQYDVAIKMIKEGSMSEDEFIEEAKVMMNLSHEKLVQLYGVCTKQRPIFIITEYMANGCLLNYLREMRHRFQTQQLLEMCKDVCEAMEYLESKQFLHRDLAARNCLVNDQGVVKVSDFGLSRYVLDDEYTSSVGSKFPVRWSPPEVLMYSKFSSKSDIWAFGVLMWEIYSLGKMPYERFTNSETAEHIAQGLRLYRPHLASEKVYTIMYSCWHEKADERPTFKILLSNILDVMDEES

T1 sequence (P00519 whole entry): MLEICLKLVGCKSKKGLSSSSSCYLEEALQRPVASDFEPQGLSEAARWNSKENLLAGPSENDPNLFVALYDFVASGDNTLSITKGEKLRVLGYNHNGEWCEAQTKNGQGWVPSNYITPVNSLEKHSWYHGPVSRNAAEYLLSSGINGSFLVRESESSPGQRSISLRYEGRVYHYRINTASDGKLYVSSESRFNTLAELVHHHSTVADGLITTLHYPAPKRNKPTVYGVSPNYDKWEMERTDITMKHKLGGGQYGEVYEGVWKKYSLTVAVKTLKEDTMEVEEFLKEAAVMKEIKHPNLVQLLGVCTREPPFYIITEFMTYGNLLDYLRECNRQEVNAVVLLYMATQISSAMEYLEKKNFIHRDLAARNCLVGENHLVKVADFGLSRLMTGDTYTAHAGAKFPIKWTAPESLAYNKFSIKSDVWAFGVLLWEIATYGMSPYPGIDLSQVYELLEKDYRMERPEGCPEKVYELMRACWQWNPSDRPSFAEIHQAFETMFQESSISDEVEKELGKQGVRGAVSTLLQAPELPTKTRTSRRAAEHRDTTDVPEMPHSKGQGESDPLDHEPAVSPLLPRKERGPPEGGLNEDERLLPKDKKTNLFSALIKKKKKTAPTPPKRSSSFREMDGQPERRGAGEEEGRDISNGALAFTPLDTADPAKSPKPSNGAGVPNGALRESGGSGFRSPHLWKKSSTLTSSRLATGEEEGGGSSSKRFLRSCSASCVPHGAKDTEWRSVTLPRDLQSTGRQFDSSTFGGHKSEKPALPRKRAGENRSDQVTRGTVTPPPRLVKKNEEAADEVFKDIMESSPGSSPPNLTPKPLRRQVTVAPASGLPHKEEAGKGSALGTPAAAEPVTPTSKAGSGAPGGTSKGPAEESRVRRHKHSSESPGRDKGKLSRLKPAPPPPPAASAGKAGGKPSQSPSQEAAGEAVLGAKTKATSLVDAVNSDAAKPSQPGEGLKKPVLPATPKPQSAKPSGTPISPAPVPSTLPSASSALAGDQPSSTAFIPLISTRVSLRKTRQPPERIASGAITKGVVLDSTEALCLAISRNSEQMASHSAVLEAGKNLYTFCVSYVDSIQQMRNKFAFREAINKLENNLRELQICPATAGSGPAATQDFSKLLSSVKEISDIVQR
Chain of E3 ubiquitin-protein ligase Mdm2 (Homo sapiens) (Q00987 whole entry, looked up): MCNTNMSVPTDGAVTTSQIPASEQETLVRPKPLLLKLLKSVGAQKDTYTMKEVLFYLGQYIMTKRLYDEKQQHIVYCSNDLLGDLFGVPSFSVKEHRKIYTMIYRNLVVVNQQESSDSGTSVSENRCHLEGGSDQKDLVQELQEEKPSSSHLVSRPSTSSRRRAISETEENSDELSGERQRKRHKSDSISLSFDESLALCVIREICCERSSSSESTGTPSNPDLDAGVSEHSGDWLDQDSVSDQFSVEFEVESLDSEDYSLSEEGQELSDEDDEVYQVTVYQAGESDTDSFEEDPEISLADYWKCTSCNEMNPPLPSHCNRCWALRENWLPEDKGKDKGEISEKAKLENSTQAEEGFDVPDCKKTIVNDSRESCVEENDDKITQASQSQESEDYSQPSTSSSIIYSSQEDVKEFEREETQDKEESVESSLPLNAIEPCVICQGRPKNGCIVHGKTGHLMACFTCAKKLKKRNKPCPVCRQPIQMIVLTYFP
Chain of NAD-dependent protein deacylase sirtuin-5, mitochondrial (Homo sapiens) (Q9NXA8 37-310 limits assumed): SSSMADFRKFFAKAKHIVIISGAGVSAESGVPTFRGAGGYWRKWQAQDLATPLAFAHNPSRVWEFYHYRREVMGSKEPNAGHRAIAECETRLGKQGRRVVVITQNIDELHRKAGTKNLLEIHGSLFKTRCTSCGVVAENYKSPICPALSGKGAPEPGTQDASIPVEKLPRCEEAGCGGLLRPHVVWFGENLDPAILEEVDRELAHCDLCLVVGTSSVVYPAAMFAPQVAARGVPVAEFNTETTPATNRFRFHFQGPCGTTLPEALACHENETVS

Nc1ncnc2c1ncn2[C@@H]1O[C@H](CN(CC[C@H](N)C(=O)O)S(=O)(=O)c2ccc(Cl)c([N+](=O)[O-])c2)[C@@H](O)[C@H]1O
half-life [1]: < 0.0333 h

C#Cc1cc(OC)c(-c2ccc3nc(NC(=O)NCO)sc3c2)cc1C=O
Kinact [2]: 1.27 10^-3/s
Ki [3]: 0.013 µM

Nc1ncnc2c1nc(Sc1cc3c(cc1I)OCO3)n2C[C@@H]1CCCN(Cc2cccc(S(=O)(=O)F)c2)C1
T1/2 (Homo sapiens [4]): 3.33 h
Kinact (Homo sapiens [5]): 6.67 10^-5/s

Cc1noc(C)c1-c1ccc(=O)n(Cc2ccc(C3CO3)cc2)c1 (stereo unspecified)
ΔTm [6]: 22 °C

O=S(=O)(c1ccc(F)cc1)n1cnc(-c2ccccc2)n1
half-life [7]: 0.108 h
Kinact [8]: 4.8 10^-4/s
Ratio [9]: 8.4 10^2/M/s

O=C(CCl)NCc1ccccc1
K [10]: 0.08 M⁻¹ s⁻¹

COc1ccc(-c2ncn(S(=O)(=O)c3ccc(F)cc3)n2)cc1
half-life [7]: 0.237 h

C#CCNC(=O)c1ccc(S(=O)(=O)N[C@@H](CCCCNC(=O)c2cncc(OS(=O)(=O)F)c2)C(=O)N[C@@H](CCCNC(=N)N)C(=O)NC2CCC2)cc1
Kinact [11]: 2.83 10^-4/s
Ratio [12]: 2.9 M⁻¹ s⁻¹

CC#CC1=Nc2ccccc2C(C)(C)N1
half-life [1]: 0.025 h
half-life [13]: > 167 h

NS(=O)(=O)c1ccc(CCNC(=O)c2cccc(S(=O)(=O)F)c2)cc1
Kinact (Carbonic anhydrase 2 [14]): 0.51 10^-5/s
Ki (Carbonic anhydrase 2 [15]): < 5 µM

C#CCN(C)C(=O)c1cncc(-c2cnc3[nH]cc(-c4cc(C=O)c(C#C)cc4OC)c3c2)c1
IC50 [16]: 0.0028 µM
Kinact [2]: 5.54 10^-3/s
Ki [3]: 3.2 µM

Cc1ccc(S(=O)(=O)OCC(=O)NCc2ccccc2)cc1
K [10]: 0.161 M⁻¹ s⁻¹

Nc1ncnc2c1ncn2[C@@H]1O[C@H](CN(CC[C@H](N)C(=O)O)S(=O)(=O)c2ccc(F)c([N+](=O)[O-])c2)[C@@H](O)[C@H]1O
half-life [1]: < 0.0333 h

NS(=O)(=O)c1ccc(CCNC(=O)Cc2ccc(S(=O)(=O)F)cc2)cc1
Kinact (Carbonic anhydrase 2 [14]): 0.36 10^-5/s
Ki (Carbonic anhydrase 2 [15]): < 5 µM

NS(=O)(=O)c1ccc(CCNC(=O)c2ccc(S(=O)(=O)F)cc2)cc1
Kinact (Carbonic anhydrase 2 [14]): 0.89 10^-5/s
Ki (Carbonic anhydrase 2 [15]): < 5 µM

O=C(COS(=O)(=O)Nc1ccccc1)NCc1ccccc1
K [10]: 0.009 M⁻¹ s⁻¹

CN(C(=O)C12CC1C2)c1ccccc1 (stereo unspecified)
half-life [1]: 32.7 h

CCCSc1nc2sc3c(c2c(=O)n1CC)CCc1ccccc1-3
half-life [1]: 0.683 h

NC(=O)C(F)Cl (stereo unspecified)
half-life [1]: 17 h
half-life [17]: 4.4 h

O=C(NCCc1cccc(F)c1)[C@@H](c1cncnc1)N(C(=O)[C@@H](F)Cl)c1ccc(S(F)(F)(F)(F)F)cc1
Ki [18]: 53.6 µM
Kin [19]: 1.1 10^-3/s

CNS(=O)(=O)OCC(=O)NCc1ccccc1
K [10]: 0.029 M⁻¹ s⁻¹
half-life at up to 200 µM [20]: ~5 h

CS(=O)(=O)OCC(=O)NCc1ccccc1
K [10]: 0.134 M⁻¹ s⁻¹

O=S(=O)(c1ccc(F)cc1)n1cnc(-c2ccc(C(F)(F)F)cc2)n1
half-life [7]: 0.0533 h
K [21]: 2.9 10^-3/M/s

COc1ccc(-c2ncn(S(=O)(=O)C3CC3)n2)cc1
half-life [22]: > 6 h

CC(NC(=O)Cc1ccc(S(=O)(=O)F)cc1)c1cccc(S(N)(=O)=O)c1 (stereo unspecified)
Kinact (Carbonic anhydrase 2 [14]): 0.97 10^-5/s
Ki (Carbonic anhydrase 2 [15]): 22 µM

NC(=O)C(Br)Br
half-life [1]: < 1.67 h

C#Cc1cccc(Oc2ccc(-c3nn(CCc4ccccc4N(C)C(=O)C45CC4C5)c4ncnc(N)c34)cc2)c1 (stereo unspecified)
half-life [1]: 32.7 h
V0 [23]: 9.7 10^-5/s

CC#CC1=Nc2ccccc2C(C)(C)O1
half-life [1]: 1.37 h
half-life [13]: > 167 h

O=C(COS(=O)(=O)NCc1ccccc1)NCc1ccccc1
K [10]: 0.02 M⁻¹ s⁻¹
half-life at up to 200 µM [20]: ~12 h

NS(=O)(=O)c1cccc(CNS(=O)(=O)c2ccc(S(=O)(=O)F)cc2)c1
Kinact (Carbonic anhydrase 2 [14]): 9.6 10^-5/s
Ki (Carbonic anhydrase 2 [15]): < 5 µM

O=C(COS(=O)(=O)Nc1ccc(Br)cc1)NCc1ccccc1
K [10]: 0.003 M⁻¹ s⁻¹

NC(=O)C(F)Br (stereo unspecified)
half-life [1]: 0.15 h

Nc1ncnc2c1nc(Sc1cc3c(cc1I)OCO3)n2C[C@H]1CCCN(Cc2cccc(S(=O)(=O)F)c2)C1
T1/2 (Homo sapiens [4]): 0.0833 h
Kinact (Homo sapiens [5]): 2.17 10^-3/s

CN(C)S(=O)(=O)OCC(=O)NCc1ccccc1
K [10]: 0.012 M⁻¹ s⁻¹

O=S(=O)(c1ccccc1)C12CC1C2 (stereo unspecified)
half-life [1]: 11.8 h
